Results taken from paper PMC3240959 (2011).

Target: T1, PfTrx-2 (Plasmodium falciparum thioredoxin-2, MAL13P1.225) (Plasmodium falciparum, UniProt Q8IDP4)
T1 sequence (Q8IDP4 28-157): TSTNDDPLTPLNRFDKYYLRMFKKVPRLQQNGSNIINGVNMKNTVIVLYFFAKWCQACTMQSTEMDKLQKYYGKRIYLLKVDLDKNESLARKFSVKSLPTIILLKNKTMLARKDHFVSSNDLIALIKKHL
Assay: insulin reduction
Type: biochemical

Question: How did the IC50 turn out when `O=C(O)CC([S][Au])C(=O)O` (racemic) [ATM, Aurothiomalate] was run?
Answer: ~20 µM
